Experimental data as given in patent EP1129352B1 (priority 1998, dated 2000).
Read-outs that look alike come from different tables or passages of the source. Numbered stars: 1 amine (or outer) side, 2 acyl side, 3 side chain; on linkers, the order of the positions; unused ones are H or OH. Bridge positions count the residues as written; N and C are the ends. Square brackets hold non-standard residues; d marks the D form. Peptide text beside a SMILES is read from it. Adda = CO[C@@H](Cc1ccccc1)[C@@H](C)/C=C(C)/C=C/[C@H](N[*:1])[C@H](C)C(=O)[*:2]; dAsp(3S-Me) = C[C@H](C(=O)[*:3])[C@@H](N[*:1])C(=O)[*:2]; d(γGlu) = O=C(O)[C@@H](CCC(=O)[*:2])N[*:1]; NMeDha = C=C(NC)C(=O)O

Key:
[1] = biological target: T1, protein phosphatase 2A (Homo sapiens, UniProt P67775); assay: biochemical; format: biochemical
T1 construct: purchased Upstate Biotechnology (Lake Placid, NY)

[2] = biological target: T1, protein phosphatase 2A; assay: biochemical; format: binding
[3] = read-out: % activity Protein phosphatase assay
[4] = read-out: % activity Competitive binding assay
[5] = 0.4%, preincubated 30 minutes on ice, relative to control, ± SEM

T1 sequence (P67775 whole entry): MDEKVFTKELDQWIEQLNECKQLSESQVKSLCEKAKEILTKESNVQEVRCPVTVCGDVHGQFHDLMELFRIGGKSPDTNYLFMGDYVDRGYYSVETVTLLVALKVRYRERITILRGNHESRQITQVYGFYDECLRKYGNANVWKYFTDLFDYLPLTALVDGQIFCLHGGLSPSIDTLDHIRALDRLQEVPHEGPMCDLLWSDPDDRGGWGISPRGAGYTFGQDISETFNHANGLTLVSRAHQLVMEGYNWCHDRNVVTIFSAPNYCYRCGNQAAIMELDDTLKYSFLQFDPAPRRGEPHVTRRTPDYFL

## Nc1ncnc2c1ncn2[C@@H]1O[C@H](COP(=O)(O)OP(=O)(O)OP(=O)(O)O)[C@@H](O)[C@H]1O [ATP]
[1]; [3]
  activity at 500 µM: 29.8 ± 5.6%
  activity at 2000 µM: 9.8 ± 3.4%
[2]; [4]
  activity at 500 µM: 102 ± 1.7%
  activity at 2000 µM: 103.3 ± 0.2%

## C[C@H](CCC(=O)NCCC[N+](C)(C)CCCS(=O)(=O)[O-])[C@H]1CC[C@H]2[C@@H]3[C@H](O)C[C@@H]4C[C@H](O)CC[C@]4(C)[C@H]3C[C@H](O)[C@]12C [CHAPS]
[1]
  % activity Protein phosphatase assay: 138.0 ± 34.4%
[2]
  % activity Competitive binding assay: 90.9 ± 9.9%

## C[S+](C)[O-] [DMSO, dimethyl sulfoxide]
[1]
  % activity Protein phosphatase assay: 97.9 ± 3.3%
[2]
  % activity Competitive binding assay: 72.8 ± 2.3%

## CO [MeOH]
[1]; 10%, preincubated 30 minutes on ice, relative to control, ± SEM
  % activity Protein phosphatase assay: 87.4 ± 4.1%
[2]; 10%
  % activity Competitive binding assay: 73.9 ± 0.5%

## [Cl-].[Na+] [NaCl]
[1]
  % activity Protein phosphatase assay: 44.4 ± 1.6%
[2]
  % activity Competitive binding assay: 41.2 ± 0.7%

## [F-].[Na+] [NaF]
[1]; 5 mM, preincubated 30 minutes on ice, relative to control, ± SEM
  % activity Protein phosphatase assay: 62.6 ± 0.4%
[1]; 50 mM, preincubated 30 minutes on ice, relative to control, ± SEM
  % activity Protein phosphatase assay: 7.7 ± 1.4%
[2]; 5 mM
  % activity Competitive binding assay: 102.0 ± 3.3%
[2]; 50 mM
  % activity Competitive binding assay: 101.5 ± 1.9%

## O=P([O-])([O-])OP(=O)([O-])[O-].[Na+].[Na+].[Na+].[Na+] [NaPPi]
[1]; 0.05 mM, preincubated 30 minutes on ice, relative to control, ± SEM
  % activity Protein phosphatase assay: 14.2 ± 1.2%
[2]; 0.05 mM
  % activity Competitive binding assay: 101.4 ± 4.1%

## CC#N [acetonitrile]
[1]
  % activity Protein phosphatase assay: 88.2 ± 2.7%
[2]
  % activity Competitive binding assay: 90.4 ± 5.4%

## COC[C@@H]([C@H](O)[C@H](O)C(=O)NCC[C@H](C)c1nc(/C=C/C[C@@H]2O[C@]3(C[C@@H](O)[C@@H]2C)O[C@H]([C@H](C[C@H](O)[C@H](C)[C@H](O)[C@H](C)/C=C(C)/C(C)=C/C=C/C(C)=C\C#N)OC)[C@H](OP(=O)(O)O)C3(C)C)co1)N(C)C [calyculin A, reference compound]
[2]; read-out: IC50
  IC50: 0.251 nM

## C=C1C(=O)N[C@H](C)C(=O)N[C@@H](CC(C)C)C(=O)N[C@@H](C(=O)O)[C@H](C)C(=O)N[C@@H](CCCNC(=N)N)C(=O)N[C@@H](/C=C/C(C)=C/[C@H](C)[C@H](Cc2ccccc2)OC)[C@H](C)C(=O)N[C@@H](C(=O)O)CCC(=O)N1C [microcystin-LR, reference compound] (R[Adda][d(γGlu)][NMeDha][dA]L[dAsp(3S-Me)]-OH; lactam N-7)
[2]; read-out: IC50
  IC50: 0.017 nM

## C/C=C1/C(=O)N[C@@H](C(=O)O)[C@H](C)C(=O)N[C@@H](CCCNC(=N)N)C(=O)N[C@@H](/C=C/C(C)=C/[C@H](C)[C@H](Cc2ccccc2)OC)[C@H](C)C(=O)N[C@@H](C(=O)O)CCC(=O)N1C [nodularin, reference compound]
[2]; read-out: IC50
  IC50: 0.015 nM

## C=C1[C@@H](O)[C@@H]2O[C@]3(CC[C@H](/C=C/[C@@H](C)[C@@H]4CC(C)=C[C@@]5(O[C@H](C[C@@](C)(O)C(=O)O)CC[C@H]5O)O4)O3)CC[C@H]2O[C@@H]1[C@@H](O)C[C@H](C)[C@H]1O[C@@]2(CCCCO2)CC[C@H]1C [okadaic acid, reference compound]
[2]
  IC50: 0.1 nM

## CO[C@H]([C@H](O)CC(=O)[C@@H](C)[C@@H](O)CC[C@@H](C)[C@@H]1O[C@]2(CC[C@@H](C)[C@H](CC[C@H](C)C(C)=O)O2)CC[C@@H]1C)[C@H](OC(=O)C[C@@H](O)C1=C(C)C(=O)OC1=O)C(C)C [tautomycin, reference compound]
[2]
  IC50: 0.562 nM

## Nonidet P-40
[1]; [5]
  % activity Protein phosphatase assay: 61.1 ± 1.3%
[2]; 0.4%
  % activity Competitive binding assay: 106.0 ± 2.0%

## Triton X-100
[1]; [5]
  % activity Protein phosphatase assay: 60.2 ± 5.7%
[2]; 0.4%
  % activity Competitive binding assay: 122.3 ± 1.0%

## microcystin-YR [reference compound]
[2]; read-out: IC50
  IC50: 0.075 nM
